Assay results as given in paper PMC9697135 (International Journal of Molecular Sciences, 2022).
Like-named read-outs stand apart in the source and are kept apart here.

Experiments:
human nSMase2 = details: cited from earlier work; for IC50: nSMase2 inhibition
ZIKV = experiment: Antiviral activity, virus yield by plaque assay (ZIKV); type: cell-based; details: Zika virus, 24 h, read-out: EC50 ZIKV
WNV = experiment: Antiviral activity, virus yield by plaque assay (WNV); type: cell-based; details: West Nile virus, MOI 1 PFU/cell, virus yield at 24 h post-infection
in vitro [1] = details: African green monkey
in vitro [2] = details: human

COc1cc(O)c(C(=O)O)c(-c2cc(O)c(O)cc2C)c1 [Altenusin]
Ki (human nSMase2; non-competitive inhibitor of human nSMase2): 20 µM

COc1cc(-c2nc(-c3cccs3)c(-c3ccccc3)[nH]2)cc(OC)c1O [DPTIP]
EC50 (ZIKV; HeLa): 1.84 µM | EC50 (ZIKV; Vero): 1.56 µM | EC50 (WNV; HeLa cells): 2.81 µM | EC50 (WNV; Vero cells): 0.26 µM | CC50 (in vitro [1]): 54.8 µM | CC50 (in vitro [2]): 15.1 µM

COc1cc(-c2nc(-c3cccs3)c(-c3ccccc3)[nH]2)cc(OC)c1OC [compound 8]
nSMase2 inhibitory activity (in words) (human nSMase2; SAR of DPTIP derivatives): completely inactive | IC50 (human nSMase2; SAR of DPTIP derivatives): > 100 µM

COc1cc(-c2nc(-c3cccs3)c(-c3ccccc3)n2C)cc(OC)c1O [compound 9]
IC50 (human nSMase2; SAR of DPTIP derivatives): 40 µM

Oc1c(OC2CCCC2)cc(-c2nc(-c3cccs3)c(-c3ccccc3)[nH]2)cc1OC1CCCC1 [compound 10]
IC50 (human nSMase2; SAR of DPTIP derivatives): 0.12 µM

CC(C)(C)Oc1cc(-c2nc(-c3cccs3)c(-c3ccccc3)[nH]2)cc(OC(C)(C)C)c1O [compound 11]
IC50 (human nSMase2; SAR of DPTIP derivatives): 0.52 µM
